Columns and labels:
[1] = oral intake; avoids digestion and absorption in the small intestine; cited from earlier work
[2] = system: IL-6; experiment: IL-6 release (ELISA) in reconstructed 3D human intestinal epithelium stressed with LPS+TNF-alpha; conditions: for effect on release of IL-6 (in words): LPS+TNF-alpha stressed tissue, vs positive control, t-test; for IL-6 Anti-inflammatory activity: compared with CTR+ (LPS+TNF-alpha), * = p<0.05 vs positive control; for IL-6 Anti-inflammatory activity / IL-6 % var. vs CTR −: reference dose; for IL-6 % var. vs CTR −: variation vs untreated tissues (CTR−), LPS+TNF-alpha stressed
Procedure: (§1) Assays of pro-inflammatory cytokines TNF-alpha and IL-6 were evaluated. The biological model used in the assay is a model of human intestinal epithelium reconstructed in vitro in 3D, consisting of intestinal epithelial and endothelial cells and fibroblasts of human origin. The highly differentiated tissue model is produced at the air-liquid interface in easily manageable culture tissue inserts using a serum-free medium. […] The cells used to produce the tissue model were screened for potential biological contaminants, using specific tests and analyses to guarantee the functionality and quality of the tissues.
(§2) The intestinal epithelium tissues reconstructed in vitro were exposed for 24 hours to the stressor lipopolysaccharide of bacterial origin (LPS) in combination with cytokine TNF-alpha, and simultaneously treated for a further 24 hours with each experimental condition examined. After the 48-hour experimental session, the culture media were harvested to assay pro-inflammatory cytokines TNF-alpha and IL-6.
(§3) Each ingredient and the mixture selected for the treatments were diluted in H2O, taking account of the average intestinal volume of 80 ml. In particular, the following reference doses were used: • calcium butyrate 500 mg; • gluconic acid 29.87 mg; • gluconic acid+calcium butyrate=29.87 mg+500 mg.
(§4) 50 μl of each sample was tested in the tissue model, simulating the following experimental conditions: • reference dose; The experimental protocol involved: • untreated tissues (CTR−); • tissues exposed to pro-inflammatory agents LPS+TNF-alpha (CTR+); • tissues exposed to pro-inflammatory agents LPS+TNF-alpha and treated with butyrate (calcium butyrate); • tissues exposed to pro-inflammatory agents LPS+TNF-alpha and treated with gluconic acid; • tissues exposed to pro-inflammatory agents LPS+TNF-alpha and treated with gluconic acid+butyrate (calcium butyrate) mixture; • Each test was conducted in duplicate. To monitor the ability of the tested ingredients to inhibit the inflammatory response in vitro in a system wherein an inflammatory condition has been induced, the production of pro-inflammatory cytokine TNF-alpha and interleukin 6 (IL-6) was evaluated. At the end of the treatments the culture media were harvested for the TNF-alpha and IL-6 assay using an ELISA kit. The data obtained were subjected to statistical analysis and compared using the t-test. The variations compared with the positive control are deemed significant for p<0.05 and indicated by “*”.
(§5) The results are expressed as mean values ±standard deviation (expressed in pg/ml), as % variation compared with CTR− and as anti-inflammatory activity compared with CTR+.

[3] = system: TNF-alpha; experiment: TNF-alpha release (ELISA) in reconstructed 3D human intestinal epithelium stressed with LPS+TNF-alpha; conditions: for effect on release of TNF-alpha (in words): LPS+TNF-alpha stressed tissue, vs positive control, t-test; for TNF-alpha Anti-inflammatory activity: compared with CTR+ (LPS+TNF-alpha), * = p<0.05 vs positive control; for TNF-alpha Anti-inflammatory activity / TNF-alpha % var. vs CTR −: reference dose; for TNF-alpha % var. vs CTR −: variation vs untreated tissues (CTR−), LPS+TNF-alpha stressed
Procedure: as §1, §2, §3, §4, §5

SMILES | gluconic acid introduced with the diet or diet supplements that reaches the large intestine [1] | effect on release of IL-6 (in words) [2] | IL-6 Anti-inflammatory activity [2] [%*] | IL-6 % var. vs CTR − [2] [%] | effect on release of TNF-alpha (in words) [3] | TNF-alpha Anti-inflammatory activity [3] [%*] | TNF-alpha % var. vs CTR − [3] [%]
O=C(O)[C@H](O)[C@@H](O)[C@H](O)[C@H](O)CO [Gluconic acid, gluconic acid] | over 70% | significantly reduce release of the pro-inflammatory cytokine | 24.3 | 60.5 | significantly reduce the release of the pro-inflammatory cytokine | 30.3 | 37.6
CCCC(=O)O [Butyrate, calcium butyrate] | – | significantly reduce release of the pro-inflammatory cytokine | 23.8 | 61.5 | significantly reduce the release of the pro-inflammatory cytokine | 28.8 | 40.5

— patent US20250170080A1, “COMPOSITIONS COMPRISING BUTYRIC ACID AND GLUCONIC ACID FOR THE TREATMENT OF DISORDERS AND SYNDROMES ASSOCIATED WITH INTESTINAL BARRIER DYSFUNCTIONS AND DYSBIOSIS” (DIFASS INTERNATIONAL S.P.A., priority 2022, published 2025)
